Results: the NIST ThermoML archive (doi:10.1016/j.fluid.2015.07.030)

Assay: refractive index (other wavelength) (dimensionless); xn = mol fraction of the nth substance listed
Details: 308.15 K, 95.99 kPa, Liquid, Standard Abbe refractometry

OCCOCCOCCO [triethylene glycol] + O
refractive index
Details | Wavelength=435.8 nm | Wavelength=486.1 nm | Wavelength=546.1 nm | Wavelength=587.6 nm | Wavelength=589.3 nm | Wavelength=632.8 nm
x2 = 0 | – | 1.45629 | 1.45285 | 1.45106 | 1.45099 | 1.44945
x2 = 0.1056 | – | 1.45496 | 1.45153 | 1.44974 | 1.44967 | 1.44814
x2 = 0.2069 | 1.4575 | 1.45334 | 1.44996 | 1.44816 | 1.44809 | 1.44655
x2 = 0.3104 | 1.45498 | 1.45085 | 1.44745 | 1.44566 | 1.44561 | 1.44407
x2 = 0.4844 | 1.45024 | 1.44616 | 1.44282 | 1.44105 | 1.44098 | 1.43947
x2 = 0.5016 | 1.44927 | 1.4452 | 1.44188 | 1.44011 | 1.44065 | 1.43853
x2 = 0.5952 | 1.44251 | 1.43858 | 1.43529 | 1.43357 | 1.4335 | 1.43202
x2 = 0.6016 | 1.44288 | 1.43766 | 1.43458 | 1.43283 | 1.43274 | 1.43225
x2 = 0.6788 | 1.43608 | 1.43224 | 1.42901 | 1.42731 | 1.42725 | 1.42577
x2 = 0.7835 | 1.42735 | 1.42362 | 1.42052 | 1.41887 | 1.4188 | 1.41735
x2 = 0.8184 | 1.42147 | 1.41778 | 1.41468 | 1.41303 | 1.41297 | 1.41153
x2 = 0.8473 | 1.41506 | 1.41139 | 1.40833 | 1.40675 | 1.40666 | 1.40524
x2 = 0.8719 | 1.40816 | 1.40459 | 1.40157 | 1.39999 | 1.39993 | 1.39853
x2 = 0.8926 | 1.40046 | 1.39696 | 1.39401 | 1.39245 | 1.39239 | 1.39102
x2 = 0.9106 | 1.3951 | 1.39162 | 1.38868 | 1.38711 | 1.38705 | 1.38567
x2 = 0.9254 | 1.38515 | 1.38181 | 1.37898 | 1.37744 | 1.37739 | 1.37602
x2 = 0.9303 | 1.38605 | 1.38268 | 1.37985 | 1.37833 | 1.37828 | 1.37692
x2 = 0.9391 | 1.38243 | 1.37908 | 1.37624 | 1.37471 | 1.37465 | –
x2 = 0.951 | 1.37585 | 1.37256 | 1.36977 | 1.36826 | 1.36821 | –
x2 = 0.9599 | 1.3695 | 1.36628 | 1.36351 | 1.36202 | 1.36197 | –
x2 = 0.9708 | 1.36175 | 1.35858 | 1.35587 | 1.35442 | 1.35436 | –
x2 = 0.979 | 1.3569 | 1.35382 | 1.35111 | 1.34968 | 1.34963 | –
x2 = 0.9867 | 1.35054 | 1.34746 | 1.34481 | 1.34338 | 1.34332 | –
x2 = 0.9936 | 1.34444 | 1.34138 | 1.33876 | 1.33735 | 1.3373 | –
